Measured values taken from patent US11091490B2, “3-amino-1,5-dihydro-pyrazolo[3,4-d]pyrimidin-4-ones as cyclin dependent kinase inhibitors” (Oncotyrol Center for Personalized Cancer Medicine GMBH, priority 2016, dated 2021).
Several values for one entry are separate records, joined by “and”; a condition that tells them apart may be missing. Equal values may be shown once. Read-outs that look alike come from different tables or passages of the source.

Assays:
NCI-H929/GN2 = test: Multiple myeloma cells in mono- and co-culture with osteoblasts, imaging based detection (NCI-H929); format: cell-based
Method: (§1) Compound 86 has been compared with the key compound of WO 2000/21926 A2 (Example 121) in an imaging based detection system.
(§2) Two different multiple myeloma (MM) cell lines (RPMI-8226 (DSMZ, ACC 402), NCI-H929 DSMZ, ACC 163) have been used and were cultured in mono- and co-culture with osteoblasts (OB) (Osteoblasts were obtained by culturing hMSCs with a differentiation inducing medium for two weeks) in accordance with the method of Karadag A. et al. Journal of Bone and Mineral Research Vol. 15, No. 10, 2000 page 1935-43.

RPMI-8226/GN1 = test: Multiple myeloma cells in mono- and co-culture with osteoblasts, imaging based detection (RPMI-8226); format: cell-based
Method: as §1, §2

- EC50 (NCI-H929/GN2; Homo sapiens, NCI-H929, NCI-H929/GN2, co-culture with osteoblasts, read-out: co-culture (+ OB) EC50): 160 nM
- EC50 (NCI-H929/GN2; Homo sapiens, NCI-H929, NCI-H929/GN2, mono-culture, read-out: mono-culture EC50): 50 nM
- EC50 (NCI-H929/GN2; NCI-H929/GN2, co-culture with osteoblasts, read-out: co-culture (+ OB) EC50): 150 nM
- EC50 (NCI-H929/GN2; NCI-H929/GN2, mono-culture, read-out: mono-culture EC50): 65 nM
- EC50 (RPMI-8226/GN1; Homo sapiens, RPMI-8226, RPMI-8226/GN1, co-culture with osteoblasts, read-out: co-culture (+ OB) EC50): 420 nM
- EC50 (RPMI-8226/GN1; Homo sapiens, RPMI-8226, RPMI-8226/GN1, mono-culture, read-out: mono-culture EC50): 120 nM
- EC50 (RPMI-8226/GN1; RPMI-8226/GN1, co-culture with osteoblasts, read-out: co-culture (+ OB) EC50): 520 nM and 650 nM
- EC50 (RPMI-8226/GN1; RPMI-8226/GN1, mono-culture, read-out: mono-culture EC50): 200 nM and 210 nM
SMILES: CC(C)c1nn(-c2c(Cl)cc(Cl)cc2Cl)c2nc(Cc3ccc(NC(=O)C4CN(C)CCN4C)cc3)[nH]c(=O)c12 (centres unmarked) [Reference compound, reference compound]
